From EP4650362A1, “NEUROPROTECTIVE PSD-95 POLYPEPTIDE INHIBITOR AND USE THEREOF” (Beijing Tuo Jie Biopharmaceutical Co. Ltd., priority 2023, dated 2024) come the findings set out here.

Read-outs that look alike come from different tables or passages of the source. Non-standard residues stand in square brackets, D forms with d. Residues, ends and D or L forms follow the SMILES beside them. Tle = CC(C)(C)[C@H](N)C(=O)O; Dab = NCC[C@H](N)C(=O)O; Aib = CC(C)(N)C(=O)O

Series [1] deals with rabbit whole blood. In words: hemolysis risk test in rabbit whole blood. The conditions noted are these: concentration range of 1 to 50 µM. Type of series: cell-based. Here is the method:
Preparation of red blood cell suspension: 100 µL of fresh whole blood was collected, and 900 µL of 1× PBS solution was then added. The mixture was shaken on a plate shaker at 30 rpm for 5 min and then centrifuged at 1000 g for 5 min, and the supernatant was discarded. The above washing step was repeated until the supernatant no longer appeared red. The suspension was set aside for later use.
Preparation of test polypeptide solutions: An appropriate amount of 1× PBS solution was added to a powdered polypeptide, and the polypeptide was dissolved to form a standard stock solution. The stock solution was then diluted with 1× PBS to form test solutions with concentrations of 1, 3, 10, 30, 100, and 300 µg/mL, and two replicate wells were set for each concentration. Meanwhile, blank 1× PBS was used as a negative control, and a 1× PBS solution containing 0.1% Triton X-100 was used as a positive control.
Incubation: A test solution (500 µL) was added to the red blood cell suspension, and then the mixture was well shaken on a plate shaker at 30 rpm for 5 min, incubated at 37 °C for 1 h, and centrifuged at 1000 g for 5 min.
100 µL of the supernatant was transferred to a single well of a microplate. The absorbance at 540 nm was measured using a SpectraMax M5 microplate reader, and data analysis was performed using GraphPad Prism 9. The hemolysis rate (%) was calculated using the formula: (test sample absorbance - negative control absorbance) / (positive control absorbance - negative control absorbance) × 100%. A rate of less than 5% indicates the absence of hemolysis, while a rate of greater than 5% indicates the presence of hemolysis. Table 3. Testing of the hemolysis risk of the polypeptide compound
A method similar to that in section 3.3.2 was adopted, with the difference being that this test example used fresh rabbit whole blood instead.

The nature of series [2]: pharmacokinetic study in rats, single intravenous bolus injection. It is filed as in vivo, SD rats. Here is the method:
With male SD rats as test animals, the pharmacokinetic behavior of polypeptide compounds administered via single intravenous bolus injection in rats (plasma) was studied.
Male SD rats weighing 170 to 200 grams and aged 4-6 weeks were purchased from Beijing Vital River Laboratory Animal Technology Co., Ltd. The polypeptide compounds were dissolved in 1× PBS, and the polypeptide compound solutions were then administered via intravenous bolus injection over 10 min at a dose of 3 nmol/g, with three animals per group. At each of the time points of 2 min, 8 min, 15 min, 30 min, 45 min, 60 min, and 120 min after the end of bolus injection, 0.2 mL of blood was collected and transferred to an EDTA-K2 anticoagulation centrifuge tube. The whole blood sample was centrifuged at 4 °C at 4000 g for 5 min, and a plasma sample was obtained by separation and cryopreserved at -80 °C.
The pharmacokinetic parameters of polypeptide compound 22, administered via intravenous bolus injection, in rats were determined using a similar method, with the difference being that an enzyme inhibitor was added immediately after blood collection.
The plasma concentrations of the test compounds were determined using the method in Test Example 3.4.3. Plasma concentration-time curves were plotted, and the pharmacokinetic parameters were calculated using PKSolver software. The experimental results are shown in Table 5-1, Table 5-2, and FIG. 3.

The nature of series [3]: plasma stability test with alteplase added, rat plasma. The following applies: Rat plasma + rt-PA (50 µg/mL alteplase), 25 µM. It is filed as in vitro ADME. How it is done: Solution preparation: An appropriate amount of a test polypeptide compound was weighed out and dissolved in an appropriate amount of 1× PBS to form a 1 mM test solution. NA-1 and NoNO42 were used as positive drugs, propantheline bromide was used as a human plasma test control, and lovastatin was used as a rat plasma test control. Plasma stability test: 12.5 µL of the 1 mM test solution was added to a 495 µL pre-incubated plasma sample. […] For each incubation time, two parallel samples were set. Subsequently, 200 µL of stop solution was added to stop the incubation, and the mixtures were vortexed for 5 min. Then the mixtures were centrifuged at 10,000 rpm at 4 °C for 10 min to remove the protein in the sample, and 70 µL of the supernatant was transferred to a new 96-well plate (70 µL of water was added to each well beforehand) and well mixed. Plasma stability test with alteplase added: An appropriate amount of solid alteplase was weighed out, and an appropriate volume of water was added. The mixture was vortexed to dissolve alteplase, forming a 1 mg/mL solution of alteplase. 250 µL of the 1 mg/mL solution of alteplase was added to 4750 µL of plasma to form a plasma sample containing 50 µg/mL alteplase. The other procedures were the same as in the aforementioned "plasma stability test", with the difference being that the plasma sample containing 50 µg/mL alteplase was used instead of plasma. […] Sample pretreatment: […] LC-MS analysis: […] (2) Mass-spectrometric conditions: The mass spectrometry analysis used an electrospray ionization (ESI) source, a positive ion analysis mode, and a multi-reaction monitoring (MRM) scan mode. […] The plasma stability of the polypeptide compound

[4] abbreviates: male, SD, rat, plasma, 3 nmol/g, rats, intravenous bolus injection, enzyme inhibitor added immediately after blood collection, n = 3.
[5] abbreviates: rats, intravenous bolus injection, enzyme inhibitor added (Table 5-2).

As to `CC[C@H](C)[C@H](NC(=O)[C@H](CO)NC(=O)[C@H](CO)NC(=O)[C@H](CC(C)C)NC(=O)[C@@H](CCCCN)NC(=O)[C@H](CCCNC(=N)N)NC(=O)[C@H](CCCNC(=N)N)NC(=O)[C@@H](CCCNC(=N)N)NC(=O)[C@H](CCC(N)=O)NC(=O)[C@@H](CCCNC(=N)N)NC(=O)[C@H](CCCNC(=N)N)NC(=O)[C@H](CCCCN)NC(=O)[C@H](CCCCN)NC(=O)[C@@H](CCCNC(=N)N)NC(=O)CNC(=O)[C@@H](N)Cc1ccc(O)cc1)C(=O)N[C@@H](CCC(=O)O)C(=O)N[C@@H](CO)C(=O)N[C@@H](CC(=O)O)C(=O)N[C@H](C(=O)O)C(C)C` [NoNO42, YGrKKRrQrRRkLSSIESDV, reference compound] (H-YG[dR]KKR[dR]Q[dR]RR[dK]LSSIESDV-OH), in series [1], the hemolysis rates result is on record as “less than 5%”. The same molecule gave a half-life in series [2] (male, SD, rat, in vivo, iv) of 2.4 min. In series [2] (rat, in vivo, iv), the AUClast/dose stood at 25 and the half-lives entry is “less than 3 min”.

Take `CC(C)[C@H](NC(=O)[C@H](CC(=O)O)NC(=O)[C@@H](NC(=O)[C@@H](NC(=O)[C@@H](NC(=O)[C@@H](NC(=O)[C@H](CCN)NC(=O)C(C)(C)NC(=O)CNC(=O)[C@@H](CCCNC(=N)N)NC(=O)[C@H](CCCNC(=N)N)NC(=O)[C@H](CCCNC(=N)N)NC(=O)[C@H](CCC(N)=O)NC(=O)[C@@H](CCCNC(=N)N)NC(=O)[C@H](CCCNC(=N)N)NC(=O)[C@H](CCCCN)NC(=O)[C@H](CCCCN)NC(=O)[C@H](N)CCCNC(=N)N)[C@@H](C)O)C(C)(C)C)C(C)(C)C)[C@@H](C)O)C(=O)O` [Polypeptide compound 22, r-K-K-R-r-Q-R-R-r-G-Aib-Dab-T-Tle-Tle-T-D-V] (H-[dR]KKR[dR]QRR[dR]G[Aib][Dab]T[Tle][Tle]TDV-OH): the hemolysis rates entry in series [1] was “less than 5%”. Besides, the “Relative remaining compound content (%)” value in series [3] (0min (standard 100%)) stood at 100.0%; in series [3] (10min), 83.4%; in series [3] (20min), 72.2%; in series [3] (30min), 48.2%; in series [3] (60min) it was 13.7%; in series [3] (120min) it was 8.1%. Further, in series [2] (male, SD, rat, in vivo, 3 nmol/g, rats, intravenous bolus injection, enzyme inhibitor added immediately after blood collection, n = 3), the AUC(0-inf) (as a rule, total exposure, with the tail of the curve extrapolated) amounted to 24300 ng·h/mL. Besides, in series [2] (setting [4]), the MRT (in general, the average time that molecules of a dose stay in the body) was determined as 106 min. Also, in series [2] (setting [4]), the Tmax (as a rule, the time from dosing to the highest level) amounted to 21.6 min. Moreover, the Cmax (as a rule, the peak of the concentration-time curve) in series [2] (male, SD, rat, plasma, 3 nmol/g, rats, intravenous bolus injection, enzyme inhibitor added immediately after blood collection, n = 3, read-out: Cmax) came out at 16900 ng/mL. The half-life in series [2] (male, SD, rat, plasma, 3 nmol/g, rats, intravenous bolus injection, enzyme inhibitor added immediately after blood collection, n = 3, read-out: T1/2 (converted)) was 69.6 min. Also, in series [2] (setting [5]), the “area under the curve (AUC) increase compared to NA-1” value was found to be 19.4 fold. Moreover, in series [2] (setting [5]), the “half-life increase compared to NA-1” value was 29 fold. Besides, the “maximum plasma concentration (Cmax) increase compared to NA-1” value in series [2] (setting [5]) came out at 2.3 fold. Further, the AUClast/dose in series [2] (rats, intravenous bolus injection, enzyme inhibitor added immediately after blood collection, n = 3) was 2239.6.
